Values quoted from earlier work in EP3697221B1, “AQUEOUS SUSPENSION CONCENTRATES BASED ON 2-[(2,4-DICHLOROPHENYL)-METHYL]-4,4'-DIMETHYL-3-ISOXAZOLIDINONE” (Bayer Aktiengesellschaft, priority 2017, dated 2019).

Details: water

| Compound | Wasserlöslichkeit |
| --- | --- |
| CC1(C)CON(Cc2ccccc2Cl)C1=O [Clomazone, 2-(2-chlorobenzyl)-4,4-dimethyl-1,2-oxazolidin-3-one] | 1000 ppm |
| CC1(C)CON(Cc2ccc(Cl)cc2Cl)C1=O [DCPMI, 2-[(2,4-Dichlorphenyl)-methyl]-4,4'-dimethyl-3-isoxazolidinone] | 39,5 ppm |
